Experimental data from US12180193B2, “Accelerating fibrosarcoma protein degrading compounds and associated methods of use” (Arvinas Operations, Inc., priority 2020, dated 2024).
Read-outs that look alike come from different tables or passages of the source.

Experiments:
[1] = target: T1, BRAF V600E (Homo sapiens, UniProt P15056, V600E); assay: Cellular assay of target protein degradation, T-Rex 293 cells stably transfected with HA-BRAF_V600E (HA immunofluorescence, high content imaging); type: cell-based
T1 construct: expressed in transfected cells
T1 sequence (P15056 whole entry V600E): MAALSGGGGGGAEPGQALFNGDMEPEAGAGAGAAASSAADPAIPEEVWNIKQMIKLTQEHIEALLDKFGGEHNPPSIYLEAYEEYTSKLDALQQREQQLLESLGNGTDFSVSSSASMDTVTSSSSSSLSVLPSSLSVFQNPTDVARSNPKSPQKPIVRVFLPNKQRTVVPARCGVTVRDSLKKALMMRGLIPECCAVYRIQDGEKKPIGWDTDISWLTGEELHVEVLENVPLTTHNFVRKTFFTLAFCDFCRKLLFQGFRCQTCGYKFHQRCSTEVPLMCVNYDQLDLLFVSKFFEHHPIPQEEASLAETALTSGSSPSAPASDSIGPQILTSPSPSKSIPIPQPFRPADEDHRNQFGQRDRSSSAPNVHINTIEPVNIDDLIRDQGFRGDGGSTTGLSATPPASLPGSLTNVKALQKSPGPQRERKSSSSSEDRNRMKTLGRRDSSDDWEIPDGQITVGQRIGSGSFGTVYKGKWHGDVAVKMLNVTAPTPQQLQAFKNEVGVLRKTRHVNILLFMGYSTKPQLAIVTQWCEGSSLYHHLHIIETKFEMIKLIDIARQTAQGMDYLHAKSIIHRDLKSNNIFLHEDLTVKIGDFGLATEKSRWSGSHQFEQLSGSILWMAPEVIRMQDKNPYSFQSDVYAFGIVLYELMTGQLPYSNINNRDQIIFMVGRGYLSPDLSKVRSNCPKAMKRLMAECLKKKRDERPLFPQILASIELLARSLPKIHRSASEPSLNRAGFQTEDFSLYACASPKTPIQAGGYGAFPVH
How it was run: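 Degradation of the HA-tagged construct is measured after 24 h treatment at 37 °C across 1 μM to 0.1 nM in 0.1% DMSO, in doxycycline-induced (1 ng/mL) cells. DC50 and Dmax come from HA fluorescence imaging.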

[2] = target: T2, BRAF G466V (Homo sapiens, UniProt P15056, G466V); assay: Cellular assay of target protein degradation, T-Rex 293 cells stably transfected with HA-BRAF G466V (HA immunofluorescence, high content imaging); type: cell-based
T2 construct: expressed in transfected cells
T2 sequence (P15056 whole entry G466V): as the sequence (P15056 whole entry V600E) above, with G466V, E600V counted along it
How it was run: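 Dose range spans 30 nM to 3 pM (0.1% DMSO) over 24 hours at 37° C, in cells induced with 0.75 ng/mL doxycycline. Fixed cells are probed with anti-HA antibody overnight at 4° C, then imaged; half-maximal degradation and maximum degradation are derived.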

[3] = half maximal degradation, T-Rex 293 HA-BRAF V600E; read-out: BRaf V600E DC50
[4] = maximum degradation observed, T-Rex 293 HA-BRAF V600E
[5] = half maximal degradation, T-Rex 293 HA-BRAF G466V; read-out: BRaf G466V DC50
[6] = maximum degradation observed, T-Rex 293 HA-BRAF G466V
[7] = read-out: BRaf V600E DC50; half maximal degradation, T-Rex 293 HA-BRAF V600E
[8] = read-out: BRaf G466V DC50; half maximal degradation, T-Rex 293 HA-BRAF G466V

## O=C1CCC(N2Cc3cc(CCCN4CC5(C4)CN(c4ccc(-c6cnc7[nH]cc(C(=O)c8c(F)ccc(NS(=O)(=O)N9CC[C@@H](F)C9)c8F)c7c6)cc4F)C5)ccc3C2=O)C(=O)N1 (stereo partly drawn) [Compound 310, (3R)-N-(3-{5-[4-(6-{3-[2-(2,6-dioxopiperidin-3-yl)-1-oxo-2,3-dihydro-1H-isoindol-5-yl]propyl}-2,6-diazaspiro[3.3]heptan-2-yl)-3-fluorophenyl]-1H-pyrrolo[2,3-b]pyridine-3-carbonyl}-2,4-difluorophenyl)-3-fluoropyrrolidine-1-sulfonamide]
[1]; [3]
  DC50: 5 to 50 nM
[1]; [4]
  Dmax: 35 to 70%
[2]; [5]
  DC50: 1 to 10 nM
[2]; [6]
  Dmax: > 70%

## O=C1CCC(N2Cc3cc(N4CCC(CN5CC[C@@H]6[C@H](C5)CN6c5ccc(-c6cnc7[nH]cc(C(=O)c8c(F)ccc(NS(=O)(=O)N9CC[C@@H](F)C9)c8F)c7c6)cc5)CC4)ccc3C2=O)C(=O)N1 (stereo partly drawn) [Compound 311, (3R)-N-[3-(5-{4-[(1R,6R)-3-({1-[2-(2,6-dioxopiperidin-3-yl)-1-oxo-2,3-dihydro-1H-isoindol-5-yl]piperidin-4-yl}methyl)-3,7-diazabicyclo[4.2.0]octan-7-yl]phenyl}-1H-pyrrolo[2,3-b]pyridine-3-carbonyl)-2,4-difluorophenyl]-3-fluoropyrrolidine-1-sulfonamide]
[1]; [3]
  DC50: 5 to 50 nM
[1]; [4]
  Dmax: 35 to 70%
[2]; [5]
  DC50: 1 to 10 nM
[2]; [6]
  Dmax: > 70%

## O=C1CCC(N2Cc3cc(C4CCN(C[C@@H]5CCN(c6ccc(-c7cnc8[nH]cc(C(=O)c9c(F)ccc(NS(=O)(=O)N%10CC[C@@H](F)C%10)c9F)c8c7)cc6)C(=O)C5)CC4)ccc3C2=O)C(=O)N1 (stereo partly drawn) [Compound 312, (3R)-N-[3-(5-{4-[(4R)-4-({4-[2-(2,6-dioxopiperidin-3-yl)-1-oxo-2,3-dihydro-1H-isoindol-5-yl]piperidin-1-yl}methyl)-2-oxopiperidin-1-yl]phenyl}-1H-pyrrolo[2,3-b]pyridine-3-carbonyl)-2,4-difluorophenyl]-3-fluoropyrrolidine-1-sulfonamide]
[1]; [3]
  DC50: 50 to 500 nM
[1]; [4]
  Dmax: > 70%
[2]; [5]
  DC50: 1 to 10 nM
[2]; [6]
  Dmax: > 70%

## O=C1CCC(N2Cc3cc(N4CCC(CN5CCN(c6ccc(-c7cnc8[nH]cc(C(=O)c9c(F)ccc(NS(=O)(=O)N%10CC[C@@H](F)C%10)c9F)c8c7)cc6)CC(F)(F)C5)CC4)ccc3C2=O)C(=O)N1 (stereo partly drawn) [Compound 315, (3R)-N-{3-(5-{4-[4-({1-[2-(2,6-dioxopiperidin-3-yl)-1-oxo-2,3-dihydro-1H-isoindol-5-yl]piperidin-4-yl}methyl)-6,6-difluoro-1,4-diazepan-1-yl]phenyl}-1H-pyrrolo[2,3-b]pyridine-3-carbonyl)-2,4-difluorophenyl]-3-fluoropyrrolidine-1-sulfonamide]
[1]; [3]
  DC50: > 500 nM
[2]; [5]
  DC50: > 30 nM

## O=C1CCC(N2Cc3cc(N4CCC(CN5CC(C6(c7ccc(-c8cnc9[nH]cc(C(=O)c%10c(F)ccc(NS(=O)(=O)N%11CC[C@@H](F)C%11)c%10F)c9c8)cc7)CC6)C5)CC4)ccc3C2=O)C(=O)N1 (stereo partly drawn) [Compound 316, (3R)-N-{3-[5-(4-{1-[1-({1-[2-(2,6-dioxopiperidin-3-yl)-1-oxo-2,3-dihydro-1H-isoindol-5-yl]piperidin-4-yl}methyl)azetidin-3-yl]cyclopropyl}phenyl)-1H-pyrrolo[2,3-b]pyridine-3-carbonyl]-2,4-difluorophenyl}-3-fluoropyrrolidine-1-sulfonamide]
[1]; [3]
  DC50: 50 to 500 nM
[1]; [4]
  Dmax: < 35%
[2]; [5]
  DC50: 1 to 10 nM
[2]; [6]
  Dmax: > 70%

## O=C1CCC(N2Cc3cc(N4CCN(CCCCc5ccc(-c6cnc7[nH]cc(C(=O)c8c(F)ccc(NS(=O)(=O)N9CC[C@@H](F)C9)c8F)c7c6)cc5)CC4)ccc3C2=O)C(=O)N1 (stereo partly drawn) [Compound 317, (3R)-N-(3-{5-[4-(4-{4-[2-(2,6-dioxopiperidin-3-yl)-1-oxo-2,3-dihydro-1H-isoindol-5-yl]piperazin-1-yl}butyl)phenyl]-1H-pyrrolo[2,3-b]pyridine-3-carbonyl}-2,4-difluorophenyl)-3-fluoropyrrolidine-1-sulfonamide]
[1]; [3]
  DC50: 50 to 500 nM
[1]; [4]
  Dmax: 35 to 70%
[2]; [5]
  DC50: 1 to 10 nM
[2]; [6]
  Dmax: > 70%

## O=C1CCC(N2Cc3cc(N4CCN(CCCCCc5ccc(-c6cnc7[nH]cc(C(=O)c8c(F)ccc(NS(=O)(=O)N9CC[C@@H](F)C9)c8F)c7c6)cc5)CC4)ccc3C2=O)C(=O)N1 (stereo partly drawn) [Compound 318, (3R)-N-(3-{5-[4-(5-{4-[2-(2,6-dioxopiperidin-3-yl)-1-oxo-2,3-dihydro-1H-isoindol-5-yl]piperazin-1-yl}penyl)phenyl]-1H-pyrrolo[2,3-b]pyridine-3-carbonyl}-2,4-difluorophenyl)-3-fluoropyrrolidine-1-sulfonamide]
[1]; [3]
  DC50: 50 to 500 nM
[1]; [4]
  Dmax: 35 to 70%
[2]; [5]
  DC50: 10 to 30 nM
[2]; [6]
  Dmax: 35 to 70%

## O=C1CCC(N2Cc3cc(C4CCN(CC5CC6(C5)CN(c5ccc(-c7cnc8[nH]cc(C(=O)c9c(F)ccc(NS(=O)(=O)N%10CC[C@@H](F)C%10)c9F)c8c7)cc5F)C6)CC4)ccc3C2=O)C(=O)N1 (stereo partly drawn) [Compound 319, (3R)-N-[3-(5-{4-[6-({4-[2-(2,6-dioxopiperidin-3-yl)-1-oxo-2,3-dihydro-1H-isoindol-5-yl]piperidin-1-yl}methyl)-2-azaspiro[3.3]heptan-2-yl]-3-fluorophenyl}-1H-pyrrolo[2,3-b]pyridine-3-carbonyl)-2,4-difluorophenyl]-3-fluoropyrrolidine-1-sulfonamide]
[1]; [4]
  Dmax: 35 to 70%
[1]; [7]
  DC50: 5 to 50 nM
[2]; [6]
  Dmax: > 70%
[2]; [8]
  DC50: 1 to 10 nM

## O=C1CCC(N2Cc3cc(N4CC(CN5CCN(C6(c7ncc(-c8cnc9[nH]cc(C(=O)c%10c(F)ccc(NS(=O)(=O)N%11CC[C@@H](F)C%11)c%10F)c9c8)cn7)CC6)CC5)C4)ccc3C2=O)C(=O)N1 (stereo partly drawn) [Compound 320, (3R)-N-{3-[5-(2-{1-[4-({1-[2-(2,6-dioxopiperidin-3-yl)-1-oxo-2,3-dihydro-1H-isoindol-5-yl]azetidin-3-yl}methyl)piperazin-1-yl]cyclopropyl}pyrimidin-5-yl)-1H-pyrrolo[2,3-b]pyridine-3-carbonyl]-2,4-difluorophenyl}-3-fluoropyrrolidine-1-sulfonamide]
[1]; [3]
  DC50: 50 to 500 nM
[1]; [4]
  Dmax: 35 to 70%
[2]; [5]
  DC50: 1 to 10 nM
[2]; [6]
  Dmax: 35 to 70%

## O=C1CCC(N2Cc3cc(CCCCN4CC5(C4)CN(c4ccc(-c6cnc7[nH]cc(C(=O)c8c(F)ccc(NS(=O)(=O)N9CC[C@@H](F)C9)c8F)c7c6)cc4)C5)ccc3C2=O)C(=O)N1 (stereo partly drawn) [Compound 321, (3R)-N-(3-{5-[4-(6-{4-[2-(2,6-dioxopiperidin-3-yl)-1-oxo-2,3-dihydro-1H-isoindol-5-yl]butyl}-2,6-diazaspiro[3.3]heptan-2-yl)phenyl]-1H-pyrrolo[2,3-b]pyridine-3-carbonyl}-2,4-difluorophenyl)-3-fluoropyrrolidine-1-sulfonamide]
[1]; [3]
  DC50: 5 to 50 nM
[1]; [4]
  Dmax: 35 to 70%
[2]; [5]
  DC50: 1 to 10 nM
[2]; [6]
  Dmax: > 70%

## O=C1CCC(N2Cc3cc(N4CCC(CN5CCCN(c6ccc(-c7cnc8[nH]cc(C(=O)c9c(F)ccc(NS(=O)(=O)N%10CC[C@@H](F)C%10)c9F)c8c7)cc6)CC5)CC4)ccc3C2=O)C(=O)N1 (stereo partly drawn) [Compound 322, (3R)-N-[3-(5-{4-[4-({1-[2-(2,6-dioxopiperidin-3-yl)-1-oxo-2,3-dihydro-1H-isoindol-5-yl]piperidin-4-yl}methyl)-1,4-diazepan-1-yl]phenyl}-1H-pyrrolo[2,3-b]pyridine-3-carbonyl)-2,4-difluorophenyl]-3-fluoropyrrolidine-1-sulfonamide]
[1]; [4]
  Dmax: < 35%
[1]; [7]
  DC50: 50 to 500 nM
[2]; [6]
  Dmax: 35 to 70%
[2]; [8]
  DC50: 1 to 10 nM

## O=C1CCC(N2C(=O)c3ccc(C4CCN(CC5CCN(c6ccc(-c7cnc8[nH]cc(C(=O)c9c(F)ccc(NS(=O)(=O)N%10CC[C@@H](F)C%10)c9F)c8c7)cc6)CC5)CC4)cc3C2=O)C(=O)N1 (stereo partly drawn) [Compound 323, (3R)-N-[3-(5-{4-[4-({4-[2-(2,6-dioxopiperidin-3-yl)-1,3-dioxo-2,3-dihydro-1H-isoindol-5-yl]piperidin-1-yl}methyl)piperidin-1-yl]phenyl}-1H-pyrrolo[2,3-b]pyridine-3-carbonyl)-2,4-difluorophenyl]-3-fluoropyrrolidine-1-sulfonamide]
[1]; [3]
  DC50: 50 to 500 nM
[1]; [4]
  Dmax: < 35%
[2]; [5]
  DC50: 10 to 30 nM
[2]; [6]
  Dmax: 35 to 70%

## O=C1CCC(N2Cc3cc(N4CCCN(CC5CCN(c6ccc(-c7cnc8[nH]cc(C(=O)c9c(F)ccc(NS(=O)(=O)N%10CC[C@@H](F)C%10)c9F)c8c7)cc6)CC5)CC4)ccc3C2=O)C(=O)N1 (stereo partly drawn) [Compound 324, (3R)-N-[3-(5-{4-[4-({4-[2-(2,6-dioxopiperidin-3-yl)-1-oxo-2,3-dihyrdo-1H-isoindol-5-yl]-1,4-diazepan-1-yl}methyl)piperidin-1-yl]phenyl}-1H-pyrrolo[2,3-b]pyridine-3-carbonyl)-2,4-difluorophenyl]-3-fluoropyrrolidine-1-sulfonamide]
[1]; [3]
  DC50: 5 to 50 nM
[1]; [4]
  Dmax: < 35%
[2]; [5]
  DC50: 1 to 10 nM
[2]; [6]
  Dmax: > 70%

## O=C1CCC(N2Cc3cc(CCCCN4CCN(c5ccc(-c6cnc7[nH]cc(C(=O)c8c(F)ccc(NS(=O)(=O)N9CC[C@@H](F)C9)c8F)c7c6)cc5)CC4)ccc3C2=O)C(=O)N1 (stereo partly drawn) [Compound 325, (3R)-N-(3-{5-[4-(4-{4-[2-(2,6-dioxopiperidin-3-yl)-1-oxo-2,3-dihydro-1H-isoindol-5-yl]butyl}piperazin-1-yl)phenyl]-1H-pyrrolo[2,3-b]pyridine-3-carbonyl}-2,4-difluorophenyl)-3-fluoropyrrolidine-1-sulfonamide]
[1]; [3]
  DC50: 5 to 50 nM
[1]; [4]
  Dmax: 35 to 70%
[2]; [5]
  DC50: 1 to 10 nM
[2]; [6]
  Dmax: > 70%
